Measurements: patent US12005107B2, “Compositions comprising recombinant Bacillus cells and a fungicide” (priority 2014, dated 2024)

System: Maize
Assay: Plant growth promotion, maize whole plant biomass after drench of growing media
Format: in vivo

trifloxystrobin
Efficacy % (additional % of plant weight compared with untreated control, actual effect observed) (drench at planting, after 14 days): 1% | Found % (plant weight, 100% = untreated control) (drench at planting, after 14 days, relative to UTC): 101% | Whole Plant Biomass (growing media drenched at planting, measured after 14 days, trifloxystrobin 0.024 mg/pot, BEE 7.85 × 10^8 CFU/pot): 2.69 g
